US20250136595A1, “ACYLATED HETEROCYCLIC QUINAZOLINE DERIVATIVES AS INHIBITORS OF ERBB2” (Enliven Inc., priority 2022, published 2025)

How the values were obtained:
Ba/F3 ERBB2 YVMA = Ba/F3 ERBB2 YVMA (Homo sapiens, UniProt P04626, DUP772-775, cells depend on it); assay: Cell viability assay (CellTiter Glo) in Ba/F3 cells engineered to express ERBB2 YVMA; type: cell-based, mouse; details: Ba/F3 cells expressing human ERBB2 YVMA mutant, 72 hours, % viability, read-out: Ba/F3 ERBB2 YVMA IC50
In short: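 IL-3-independent mouse Ba/F3 line stably transduced with human ERBB2 YVMA, seeded at 3000 cells/well, exposed to serially diluted compound (≤0.1% DMSO) for 72 h at 37° C. ATP read by CellTiter Glo luminescence, normalised to DMSO and media-only controls; sigmoidal nonlinear regression fit.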

[1] = biological target: T1, phosphorylated ERBB2 (pERBB2) (Homo sapiens, UniProt P04626); assay: Detection of phosphorylated ERBB2 (pERBB2) by ELISA in BT-474 cells; type: cell-based; details: four hour incubation with compound
T1 construct: endogenous in cells; host or cells: BT-474
In short: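 BT-474 cells treated 4 h at 37 °C, 5% CO2 with four-fold dilutions (10 μM to 0.01 nM final). Lysates analysed by ELISA for pERBB2, TMB read at OD 450 nm. % relative activity normalised to no-cell (low) and 0.1% DMSO-treated (high) controls.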

[2] = biological target: T2, phosphorylated EGFR (pEGFR) (Homo sapiens, UniProt P00533); assay: Detection of phosphorylated EGFR (pEGFR) in EGF-stimulated A431 cells (AlphaLISA); type: cell-based; details: A431 cells (10% FBS), 4 hours incubation, EGF 30 ng/mL for 10 minutes
T2 construct: performed to measure phosphorylated EGFR levels using A431 cells; endogenous in cells; host or cells: A431
In short: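 Cells in 10% FBS treated with compound 4 h at 37° C., then stimulated 10 min with 30 ng/mL EGF, lysed, and pEGFR measured by AlphaLISA. Inhibition normalized to DMSO and staurosporine controls; IC50 from four-parameter logistic fit.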

T2 sequence (P00533 25-1210): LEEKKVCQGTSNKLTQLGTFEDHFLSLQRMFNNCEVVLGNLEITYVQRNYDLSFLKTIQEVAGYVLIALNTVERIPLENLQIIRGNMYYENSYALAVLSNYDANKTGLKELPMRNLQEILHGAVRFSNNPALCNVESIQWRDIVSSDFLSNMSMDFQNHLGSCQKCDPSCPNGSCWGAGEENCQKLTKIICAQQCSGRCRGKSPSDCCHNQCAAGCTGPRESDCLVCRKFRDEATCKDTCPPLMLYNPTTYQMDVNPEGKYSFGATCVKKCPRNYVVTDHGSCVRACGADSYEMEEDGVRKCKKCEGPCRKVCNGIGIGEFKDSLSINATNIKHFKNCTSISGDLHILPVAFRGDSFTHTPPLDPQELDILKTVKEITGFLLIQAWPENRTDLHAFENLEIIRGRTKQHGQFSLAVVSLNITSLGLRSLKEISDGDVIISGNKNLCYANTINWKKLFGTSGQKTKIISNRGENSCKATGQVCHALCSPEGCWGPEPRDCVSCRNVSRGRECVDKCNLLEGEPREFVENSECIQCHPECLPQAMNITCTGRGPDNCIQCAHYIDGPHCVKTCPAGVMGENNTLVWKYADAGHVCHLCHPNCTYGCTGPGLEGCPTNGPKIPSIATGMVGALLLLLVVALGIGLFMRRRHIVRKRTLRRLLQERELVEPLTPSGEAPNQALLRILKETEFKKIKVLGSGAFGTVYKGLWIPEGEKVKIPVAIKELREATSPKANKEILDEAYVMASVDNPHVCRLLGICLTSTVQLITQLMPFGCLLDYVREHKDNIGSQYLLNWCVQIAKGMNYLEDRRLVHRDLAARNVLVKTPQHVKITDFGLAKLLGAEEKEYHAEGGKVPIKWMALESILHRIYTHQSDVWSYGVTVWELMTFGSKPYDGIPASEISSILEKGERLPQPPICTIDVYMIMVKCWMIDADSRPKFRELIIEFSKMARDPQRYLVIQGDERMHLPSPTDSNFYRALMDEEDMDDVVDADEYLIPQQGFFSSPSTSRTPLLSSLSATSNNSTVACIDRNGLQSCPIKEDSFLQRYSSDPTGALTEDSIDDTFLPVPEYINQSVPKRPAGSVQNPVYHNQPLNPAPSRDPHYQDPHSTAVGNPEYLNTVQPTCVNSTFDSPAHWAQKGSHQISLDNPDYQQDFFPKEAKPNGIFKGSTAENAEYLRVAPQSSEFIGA
T1 sequence (P04626 23-1255): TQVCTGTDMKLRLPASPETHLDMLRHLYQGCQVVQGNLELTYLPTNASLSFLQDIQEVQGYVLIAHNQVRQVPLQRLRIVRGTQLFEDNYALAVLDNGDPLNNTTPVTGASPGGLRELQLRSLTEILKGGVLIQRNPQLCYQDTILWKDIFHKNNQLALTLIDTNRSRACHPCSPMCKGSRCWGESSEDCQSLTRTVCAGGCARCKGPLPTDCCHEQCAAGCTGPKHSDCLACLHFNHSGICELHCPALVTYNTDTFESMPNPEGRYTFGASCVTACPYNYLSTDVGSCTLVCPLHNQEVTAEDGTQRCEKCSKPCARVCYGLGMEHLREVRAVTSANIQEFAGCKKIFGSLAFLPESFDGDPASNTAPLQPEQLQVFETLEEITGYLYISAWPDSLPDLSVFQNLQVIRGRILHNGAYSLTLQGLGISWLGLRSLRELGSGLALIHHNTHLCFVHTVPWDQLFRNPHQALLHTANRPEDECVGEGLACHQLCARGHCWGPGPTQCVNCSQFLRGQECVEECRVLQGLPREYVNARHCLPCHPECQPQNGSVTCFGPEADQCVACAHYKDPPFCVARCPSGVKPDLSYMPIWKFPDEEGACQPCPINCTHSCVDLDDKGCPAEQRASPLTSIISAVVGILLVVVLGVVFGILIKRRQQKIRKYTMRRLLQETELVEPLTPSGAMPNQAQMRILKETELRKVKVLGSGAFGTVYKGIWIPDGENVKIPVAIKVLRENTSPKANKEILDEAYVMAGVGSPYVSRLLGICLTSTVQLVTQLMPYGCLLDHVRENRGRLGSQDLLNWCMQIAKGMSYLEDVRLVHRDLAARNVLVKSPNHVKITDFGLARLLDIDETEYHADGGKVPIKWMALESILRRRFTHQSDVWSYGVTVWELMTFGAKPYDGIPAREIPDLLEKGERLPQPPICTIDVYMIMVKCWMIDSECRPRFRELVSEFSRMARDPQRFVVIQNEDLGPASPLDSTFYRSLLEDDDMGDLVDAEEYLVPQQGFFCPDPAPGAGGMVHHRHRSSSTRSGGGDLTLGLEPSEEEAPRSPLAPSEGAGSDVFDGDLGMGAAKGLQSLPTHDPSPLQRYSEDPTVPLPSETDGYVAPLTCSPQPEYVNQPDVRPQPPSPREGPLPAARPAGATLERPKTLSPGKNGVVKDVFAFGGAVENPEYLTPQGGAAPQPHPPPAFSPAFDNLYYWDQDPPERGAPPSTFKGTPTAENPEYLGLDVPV
Chain of Ba/F3 ERBB2 YVMA (P04626 with tags, fused parts or gaps DUP772-775): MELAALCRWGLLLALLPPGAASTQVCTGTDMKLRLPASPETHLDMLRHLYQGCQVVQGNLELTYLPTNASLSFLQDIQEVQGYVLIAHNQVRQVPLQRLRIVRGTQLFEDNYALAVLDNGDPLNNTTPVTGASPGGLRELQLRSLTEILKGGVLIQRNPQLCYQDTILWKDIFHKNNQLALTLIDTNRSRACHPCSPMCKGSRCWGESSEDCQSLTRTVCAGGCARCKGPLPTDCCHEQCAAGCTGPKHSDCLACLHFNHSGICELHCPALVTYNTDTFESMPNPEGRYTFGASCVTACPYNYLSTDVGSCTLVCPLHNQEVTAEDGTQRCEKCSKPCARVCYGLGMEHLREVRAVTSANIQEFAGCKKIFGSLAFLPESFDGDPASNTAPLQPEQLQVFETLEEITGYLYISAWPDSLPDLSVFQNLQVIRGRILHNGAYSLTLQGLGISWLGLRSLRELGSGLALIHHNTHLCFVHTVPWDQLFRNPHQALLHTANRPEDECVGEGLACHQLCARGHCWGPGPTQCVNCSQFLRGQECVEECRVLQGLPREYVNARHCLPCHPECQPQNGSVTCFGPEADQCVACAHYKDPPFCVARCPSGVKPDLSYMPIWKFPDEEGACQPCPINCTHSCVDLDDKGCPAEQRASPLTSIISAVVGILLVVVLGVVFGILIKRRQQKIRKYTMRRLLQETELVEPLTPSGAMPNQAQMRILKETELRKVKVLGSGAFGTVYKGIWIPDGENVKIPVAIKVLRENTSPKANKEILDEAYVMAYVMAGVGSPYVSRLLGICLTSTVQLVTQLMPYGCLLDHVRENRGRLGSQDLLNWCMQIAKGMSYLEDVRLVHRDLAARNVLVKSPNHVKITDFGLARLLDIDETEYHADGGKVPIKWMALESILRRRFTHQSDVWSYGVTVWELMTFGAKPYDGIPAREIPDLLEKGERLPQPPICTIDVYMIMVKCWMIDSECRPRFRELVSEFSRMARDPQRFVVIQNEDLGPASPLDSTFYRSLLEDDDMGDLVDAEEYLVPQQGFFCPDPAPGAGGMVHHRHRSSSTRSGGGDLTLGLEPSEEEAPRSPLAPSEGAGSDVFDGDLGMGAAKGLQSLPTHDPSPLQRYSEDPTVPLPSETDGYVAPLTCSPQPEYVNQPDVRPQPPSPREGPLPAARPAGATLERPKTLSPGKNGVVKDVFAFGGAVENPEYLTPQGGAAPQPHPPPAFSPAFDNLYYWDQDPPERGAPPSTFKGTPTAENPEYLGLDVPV

| Compound | GI50 (Ba/F3 ERBB2 YVMA) | IC50 [1] | IC50 [2] |
| --- | --- | --- | --- |
| C=CC(=O)N1CCN(c2ccc3ncnc(Nc4ccc(Cc5ccn6ncnc6c5)c(C)c4)c3n2)CC12CC2 [Compound 129, 1-(7-{4-[(3-methyl-4-{[1,2,4]triazolo[1,5-a]pyridin-7-ylmethyl}phenyl)amino]pyrido[3,2-d]pyrimidin-6-yl}-4,7-diazaspiro[2.5]octan-4-yl)prop-2-en-1-one] | 5.32 nM | 21.5 nM | 317 nM |
| C=CC(=O)N1CCN(c2ncc3ncnc(Nc4ccc(Cc5ccc6c(c5)ncn6C)c(C)c4)c3n2)CC1 [Compound 84, 1-{4-[8-({3-methyl-4-[(1-methyl-1,3-benzodiazol-5-yl)methyl]phenyl}amino)-[1,3]diazino[5,4-d]pyrimidin-2-yl]piperazin-1-yl}prop-2-en-1-one] | 10.7 nM | 25.2 nM | > 10000 nM |
| C=CC(=O)N1CCN(c2ccc3ncnc(Nc4ccc(Cc5ccn6ncnc6c5)c(C)c4)c3n2)[C@@H](C)C1 [Compound 66, (S)-1-(4-(4-((4-([1,2,4]triazolo[1,5-a]pyridin-7-ylmethyl)-3-methylphenyl)amino)pyrido[3,2-d]pyrimidin-6-yl)-3-methylpiperazin-1-yl)prop-2-en-1-one] | 12.5 nM | 18 nM | 9020 nM |
| C=CC(=O)N1CCN(c2ccc3ncnc(Nc4ccc(Oc5ccc6c(c5)ncn6C)c(C)c4)c3c2)CC1 [Compound 88, 1-{4-[4-({3-methyl-4-[(1-methyl-1,3-benzodiazol-5-yl)oxy]phenyl}amino)quinazolin-6-yl]piperazin-1-yl}prop-2-en-1-one] | 22 nM | 16.6 nM | 729 nM |
| C=CC(=O)N1CCN(c2ccc3ncnc(Nc4ccc(Cc5ccc6c(c5)ncn6C)c(C)c4)c3c2)[C@@H](C)C1 [Compound 125, (S)-1-(3-methyl-4-(4-((3-methyl-4-((1-methyl-1H-benzo[d]imidazol-5-yl)methyl)phenyl)amino)quinazolin-6-yl)piperazin-1-yl)prop-2-en-1-one] | 61.2 nM | 95.9 nM | > 10000 nM |
| C=CC(=O)N1CCN(c2ncc3ncnc(Nc4ccc(Oc5ccn6ncnc6c5)c(C)c4)c3n2)CC1 [Compound 45, 1-(4-{8-[(3-methyl-4-{[1,2,4]triazolo[1,5-a]pyridin-7-yloxy}phenyl)amino]pyrimido[5,4-d][1,3]diazin-2-yl}piperazin-1-yl)prop-2-en-1-one] | 4.5 nM | 9.23 nM | 667 nM |
| C=CC(=O)N1CCN(c2ccc3ncnc(Nc4ccc(Oc5ccn6ncnc6c5)c(C)c4)c3n2)C[C@@H]1C [Compound 9, 1-[(2S)-2-methyl-4-{4-[(3-methyl-4-{[1,2,4]triazolo[1,5-a]pyridin-7-yloxy}phenyl)amino]pyrido[3,2-d]pyrimidin-6-yl}piperazin-1-yl]prop-2-en-1-one] | 7.5 nM | 10.7 nM | 1030 nM |
| C=CC(=O)N1CC[C@@H](Oc2ccc3ncnc(Nc4ccc(Oc5ccn6ncnc6c5)c(C)c4)c3c2)C1 [Compound 36, (R)-1-(3-((4-((4-([1,2,4]triazolo[1,5-a]pyridin-7-yloxy)-3-methylphenyl)amino)quinazolin-6-yl)oxy)pyrrolidin-1-yl)prop-2-en-1-one] | 98.7 nM | 17.8 nM | > 10000 nM |
| C=CC(=O)N1CCN(c2ccc3ncnc(Nc4ccc(O[C@@H]5CCCOC5)c(C)c4)c3n2)CC1 [Compound 98, 1-{4-[4-({3-methyl-4-[(3R)-oxan-3-yloxy]phenyl}amino)pyrido[3,2-d]pyrimidin-6-yl]piperazin-1-yl}prop-2-en-1-one] | 64.4 nM | 65.6 nM | 186 nM |
| C=CC(=O)N1CC[C@@H](Oc2ccc3ncnc(Nc4ccc(Oc5ccc6c(c5)ncn6C)c(C)c4)c3c2)C1 [Compound 37, 1-[(3R)-3-{[4-({3-methyl-4-[(1-methyl-1,3-benzodiazol-5-yl)oxy]phenyl}amino)quinazolin-6-yl]oxy}pyrrolidin-1-yl]prop-2-en-1-one] | 52.8 nM | 33.7 nM | 2880 nM |
| C=CC(=O)N1CCC2(C1)CN(c1ccc3ncnc(Nc4ccc(Oc5ccn6ncnc6c5)c(C)c4)c3n1)C2 [Compound 21, 1-(2-{4-[(3-methyl-4-{[1,2,4]triazolo[1,5-a]pyridin-7-yloxy}phenyl)amino]pyrido[3,2-d]pyrimidin-6-yl}-2,6-diazaspiro[3.4]octan-6-yl)prop-2-en-1-one] | 9.76 nM | 12.1 nM | 9420 nM |
| C=CC(=O)N1CCN(c2ccc3ncnc(Nc4ccc(Cc5ccc6c(c5)ncn6C)c(C)c4)c3n2)[C@@H](C)C1 [Compound 68, (S)-1-(3-methyl-4-(4-((3-methyl-4-((1-methyl-1H-benzo[d]imidazol-5-yl)methyl)phenyl)amino)pyrido[3,2-d]pyrimidin-6-yl)piperazin-1-yl)prop-2-en-1-one] | 14.7 nM | 44.8 nM | 2570 nM |
| C=CC(=O)N1CCN(c2ncc3ncnc(Nc4ccc(Cc5ccn6ncnc6c5)c(C)c4)c3n2)C[C@H]1C [Compound 111, (R)-1-(4-(8-((4-([1,2,4]triazolo[1,5-a]pyridin-7-ylmethyl)-3-methylphenyl)amino)pyrimido[5,4-d]pyrimidin-2-yl)-2-methylpiperazin-1-yl)prop-2-en-1-one] | 22.7 nM | 28.1 nM | 5460 nM |
| C=CC(=O)N1CCN(c2cc3c(Nc4ccc(Oc5ccn6ncnc6c5)c(C)c4)ncnc3cn2)C[C@H]1C [Compound 55, 1-[(2R)-2-methyl-4-{4-[(3-methyl-4-{[1,2,4]triazolo[1,5-a]pyridin-7-yloxy}phenyl)amino]pyrido[3,4-d]pyrimidin-6-yl}piperazin-1-yl]prop-2-en-1-one] | 18.5 nM | 12 nM | 2580 nM |
| CC#CC(=O)N1CCN(c2ccc3ncnc(Nc4ccc(Oc5ccc6c(c5)ncn6C)c(C)c4)c3n2)CC1 [Compound 31, 1-{4-[4-({3-methyl-4-[(1-methyl-1,3-benzodiazol-5-yl)oxy]phenyl}amino)pyrido[3,2-d]pyrimidin-6-yl]piperazin-1-yl}but-2-yn-1-one] | 6.56 nM | 29 nM | 7640 nM |
| C=CC(=O)N1CCN(c2ccc3ncnc(Nc4ccc(Oc5ccc6c(c5)ncn6C)c(C)c4)c3c2)[C@@H](C)C1 [Compound 89, 1-[(3S)-3-methyl-4-[4-({3-methyl-4-[(1-methyl-1,3-benzodiazol-5-yl)oxy]phenyl}amino)quinazolin-6-yl]piperazin-1-yl]prop-2-en-1-one] | 152 nM | 19 nM | 5380 nM |
| C=CC(=O)N1CC2CC1CN2c1ccc2ncnc(Nc3ccc(Cc4ccn5ncnc5c4)c(C)c3)c2n1 (stereo not drawn) [Compound 128, 1-(5-(4-((4-([1,2,4]triazolo[1,5-a]pyridin-7-ylmethyl)-3-methylphenyl)amino)pyrido[3,2-d]pyrimidin-6-yl)-2,5-diazabicyclo[2.2.1]heptan-2-yl)prop-2-en-1-one] | 7.45 nM | 19.8 nM | 530 nM |
| C=CC(=O)N1CC2CCC(C1)N2c1ccc2ncnc(Nc3ccc(Cc4ccn5ncnc5c4)c(C)c3)c2n1 [Compound 95, 1-(8-{4-[(3-methyl-4-{[1,2,4]triazolo[1,5-a]pyridin-7-ylmethyl}phenyl)amino]pyrido[3,2-d]pyrimidin-6-yl}-3,8-diazabicyclo[3.2.1]octan-3-yl)prop-2-en-1-one] | 6.96 nM | 21.2 nM | 1800 nM |
| C=CC(=O)N1C2CCC1CN(c1ccc3ncnc(Nc4ccc(Cc5ccn6ncnc6c5)c(C)c4)c3n1)C2 [Compound 127, 1-(3-(4-((4-([1,2,4]triazolo[1,5-a]pyridin-7-ylmethyl)-3-methylphenyl)amino)pyrido[3,2-d]pyrimidin-6-yl)-3,8-diazabicyclo[3.2.1]octan-8-yl)prop-2-en-1-one] | 4.37 nM | 17.5 nM | 2150 nM |
| C=CC(=O)N1CCN(c2cc3c(Nc4ccc(Oc5ccc(C(=O)NCC(C)(C)C)cc5)c(C)c4)ncnc3cn2)CC1 [Compound 39, N-(2,2-dimethylpropyl)-4-[2-methyl-4-({6-[4-(prop-2-enoyl)piperazin-1-yl]pyrido[3,4-d]pyrimidin-4-yl}amino)phenoxy]benzamide] | 53 nM | 59.9 nM | 3360 nM |
| C=CC(=O)N1C2CC1CN(c1ccc3ncnc(Nc4ccc(Oc5ccn6ncnc6c5)c(C)c4)c3n1)C2 [Compound 15, 1-(3-{4-[(3-methyl-4-{[1,2,4]triazolo[1,5-a]pyridin-7-yloxy}phenyl)amino]pyrido[3,2-d]pyrimidin-6-yl}-3,6-diazabicyclo[3.1.1]heptan-6-yl)prop-2-en-1-one] | 17.4 nM | 19.8 nM | 629 nM |
| C=CC(=O)N1CCN(c2cc3c(Nc4ccc(Cc5ccn6ncnc6c5)c(C)c4)ncnc3cn2)[C@@H](C)C1 [Compound 85, (S)-1-(4-(4-((4-([1,2,4]triazolo[1,5-a]pyridin-7-ylmethyl)-3-methylphenyl)amino)pyrido[3,4-d]pyrimidin-6-yl)-3-methylpiperazin-1-yl)prop-2-en-1-one] | 69.7 nM | 47.7 nM | > 10000 nM |
